From patent publication US20140303322A1, “ANTIMICROBIAL AND BACTERIOSTATIC-MODIFIED POLYMERS FOR CELLULOSE FIBRES” (priority 2012, published 2014)
Marks after values point to notes of the source that are not given here.

Key:
[1] = Water solubility of triclosan and butylparaben (UV spectrophotometer); format: physicochemical; settings: FIGS. 13 and 14; complex with CPβCD
Source text: The triclosan/CPβCD or butylparaben/CPβCD complex can be prepared by adopting the procedures described by Arias et al. (1997)^7 and Mura et al. (2002)^8. […] The solubility of triclosan or butylparaben can be determined by a UV spectrophotometer at wavelength of 282 nm and 256 nm, respectively.

[2] = tested on: E. coli ATCC 11229; test: Shaking flask method, antibiotics/CPβCD complexes on cellulose fibres; format: cell-based, Escherichia coli; settings: CPβCD complex
[3] = concentration 0.03 % wt, contacting time 1 hour
[4] = concentration 0.06 % wt, contacting time 1 hour
[5] = concentration 0.125 % wt, contacting time 1 hour
[6] = concentration 0.25 % wt, contacting time 1 hour
[7] = concentration 0.5 % wt, contacting time 1 hour
[8] = concentration 1 % wt, contacting time 1 hour
[9] = contacting time 0.5 min, antibiotic 0.5% wt based on cellulose fibres
[10] = contacting time 1 min, antibiotic 0.5% wt based on cellulose fibres
[11] = contacting time 3 min, antibiotic 0.5% wt based on cellulose fibres
[12] = contacting time 10 min, antibiotic 0.5% wt based on cellulose fibres
[13] = contacting time 30 min, antibiotic 0.5% wt based on cellulose fibres
[14] = contacting time 60 min, antibiotic 0.5% wt based on cellulose fibres

| SMILES | water solubility as a function of CPβCD content [1] | Growth inhibition (%) [2, 3] [%] | Growth inhibition (%) [2, 4] [%] | Growth inhibition (%) [2, 5] [%] | Growth inhibition (%) [2, 6] [%] | Growth inhibition (%) [2, 7] [%] | Growth inhibition (%) [2, 8] [%] | Growth inhibition (%) [2, 9] [%] | Growth inhibition (%) [2, 10] [%] | Growth inhibition (%) [2, 11] [%] | Growth inhibition (%) [2, 12] | Growth inhibition (%) [2, 13] [%] | Growth inhibition (%) [2, 14] [%] |
| --- | --- | --- | --- | --- | --- | --- | --- | --- | --- | --- | --- | --- | --- |
| CCCCOC(=O)c1ccc(O)cc1 [Butylparaben, butylparaben] | linear increased with the CPβCD content | 4.54 | 9.09 | 54.6 | 81.8 | 99.9 | 100 | 50.0 | 61.9 | 95.8 | 100**** % | 100 | 100 |
| Oc1cc(Cl)ccc1Oc1ccc(Cl)cc1Cl [Triclosan] | linear increased with the CPβCD content | 23.2 | 50.2 | 68.1 | 87.1 | 99.7 | 100 | 24.6 | 37.7 | 61.0 | 95.8% | 99.6 | 100 |
